The results in this text go back to patent US10774039B2, “Cyclopropene amino acids and methods” (United Kingdom Research and Innovation, priority 2014, dated 2020).

Assay [1] has as its target PylRS/tRNACUA pair (Methanosarcina mazei, UniProt Q8PWY1). The assay is described as follows: Dual luciferase reporter assay on ovary extract of flies fed amino acid. Format: in vivo, D. melanogaster. More on the design: expressed in transfected cells; host or cells: transgenic Drosophila melanogaster, ovaries (UAS-PylRS driven by nos-vp16-GAL4). As to conditions: flies fed 10 mM amino acid. How it is done:
Dual luciferase assay on ovary extract from 10 female flies expressing Triple-Rep-L in the presence or absence of 10 mM 1 or 10 mM 3. […] The error bars represent the standard deviation of 3 technical replicates from a single biological replicate. FIG. 10B: Site-specific incorporation of 3 (or 1) into GFP_TAG_mCherry-HA in flies expressing PylRS/PyltRNACUA. The full-length protein resulting from unnatural amino acid incorporation is detected by anti-HA western blot. FIG. 10C: Specific labelling of encoded 3 with tetrazine probes. Flies were fed with no amino acid, amino acid 1 (500 flies) or amino acid 3 (100 flies). […] The full-length protein containing the unnatural amino acid was immunoprecipitated from lysed ovaries with anti-GFP beads. The beads were labelled (4g, 4 μM, 200 μL, PBS, RT, 2 h) washed.
Transgenic lines were created by P element insertion using a Drosophila embryo injection service (BestGene Inc.). Lines were generated using the following plasmids: pFT58 (Ala), pFT60 (Ser), pFT62 (Leu) and pFT63 (Met). nos-Gal4-VP16 (Bloomington 4937) and MS1096-Gal4 (Bloomington 8860) were used as Gal4 drivers. All flies were grown at 25° C. on standard Iberian medium. Flies were fed unnatural amino acids by mixing dried yeast with the appropriate concentration of amino acid (usually 10 mM) diluted in dH2O to make a paste. Ovaries were prepared from females that were grown on Iberian fly food supplemented with a yeast paste with or without the amino acid for a minimum of 48 hours. For proteome labelling experiments transgenic male flies of constructs FT58, FT60, FT62 and FT63 were crossed with nos-vp16-GAL4 virgins to generate FT58/nos-vp16-GAL4, FT60/nos-vp16-GAL4, FT62/nos-vp16-GAL4 and FT63/nos-vp16-GAL4 respectively.
Ovaries from 10 females of Triple Rep-L flies recombined with nos-Gal4-VP16 fed 3, 1 or no amino acid were dissected in 100 μl 1× Passive lysis buffer and processed for luciferase assays as previously described^20.

For assay [2], the system named is PylRS/tRNACUA pair. The assay can be described thus: Site-specific incorporation into sfGFP150TAG expressed in E. coli. Type of assay: cell-based, Methanosarcina barkeri. The note with it: SfGFP gene with amber codon at position 150, E. coli, PylRS/tRNACUA pair. How it is done: FIG. 2A: The PylRS/RNACUA pair directs efficient, site-specific incorporation of 3 into sfGFP bearing an amber stop codon at position 150.
Expression and purification of sfGFP-3 from E. coli Electrocompetent E. coli DH10B cells were co-transformed with pBK-MbPylRS and psfGFP150TAG PyIT^14, 26. Transformed cells were recovered in S.O.B. (1 mL, supplemented with 0.2% glucose) for 1 h at 37° C. and used to inoculate LB containing 50 μg/mL kanamycin and 25 μg/mL tetracycline (LB-KT). The cells were incubated with shaking overnight at 37° C., 250 r.p.m. 1 mL of overnight culture was used to inoculate 100 mL of LB-KT½, the day culture was then incubated (37° C., 250 r.p.m). At O.D.600˜0.3, the culture was divided equally and supplemented with either 3 (1 mM) or H2O (500 μL) and incubated further (37° C., 250 r.p.m). At O.D.600˜0.6 protein expression was induced by the addition of arabinose (0.2%), after 4 h, the cells were harvested by centrifugation (4000 r.p.m, 20 min) and the pellet frozen until further use.
The frozen bacterial pellet was thawed on ice and resuspended in 2.5 mL lysis buffer (Bugbuster®, Novagen®, 50 μg/mL DNAse 1, Roche inhibitor cocktail and 20 mM imidazole). Cells were incubated (4° C., 30 minutes) then clarified by centrifugation (16000 g, 4° C., 30 minutes). The clarified lysates were transferred to fresh tubes and 100 μL Ni-NTA slurry added. The mixtures was incubated with agitation (4° C., 1 h) and then collected by centrifugation (1000 g, 4° C., 5 min). The beads were resuspended three times in 500 μL wash buffer (10 mM Tris-HCL, 40 mM imidazole, 200 mM NaCl, pH 8) and collected by centrifugation (1000 g, 4° C., 5 min). Finally, the beads were resuspended in 100 μL, elution buffer (10 mM Tris-HCL, 300 mM imidazole, 200 mM NaCl, pH 8), pelleted by centrifugation (1000 g, 4° C., 5 min) and the supernatant collected into fresh tubes. The elution was repeated three times with 100 μL of elution buffer. The purified proteins were analysed by 4-12% SDS-PAGE and LC-MS.

Chain of PylRS/tRNACUA pair (Methanosarcina mazei, UniProt Q8PWY1) (Q8PWY1 whole entry, the tested form may be a part): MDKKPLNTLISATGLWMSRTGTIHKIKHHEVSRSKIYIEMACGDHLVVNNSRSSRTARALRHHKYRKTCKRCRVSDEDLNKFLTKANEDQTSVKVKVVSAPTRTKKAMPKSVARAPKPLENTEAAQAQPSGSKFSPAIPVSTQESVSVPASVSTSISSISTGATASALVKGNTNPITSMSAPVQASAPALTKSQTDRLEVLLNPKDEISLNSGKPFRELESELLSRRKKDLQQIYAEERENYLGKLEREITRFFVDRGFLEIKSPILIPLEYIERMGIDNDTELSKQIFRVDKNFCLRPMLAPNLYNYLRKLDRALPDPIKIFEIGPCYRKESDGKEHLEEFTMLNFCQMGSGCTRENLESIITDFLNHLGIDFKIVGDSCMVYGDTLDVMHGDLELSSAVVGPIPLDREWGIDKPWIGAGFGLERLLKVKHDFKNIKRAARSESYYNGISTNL

With `CC(C)(C)OC(=O)NCCCC[C@H](N)C(=O)O` [amino acid 1, N^ε-[(tert-butoxy)carbonyl]-L-lysine, reference compound], the “luciferase signal dependent on amino acid addition” value in assay [1] is listed as “strong luciferase signal”. Moreover, the yield of protein in assay [2] was 4 mg per litre of culture.
